Results: US8614178B2, “Pharmaceutical composition for treatment of dry eye syndrome” (Novaliq GmbH, priority 2009, dated 2013)
Where two headings read alike, the source gives them in different places. Each block holds one compound with its values, some of them ahead of it.

What was measured:
[1] = Refractive index determination; conditions: neat SFA
[2] = Droplet size (weight and volume) from three droppers; format: physicochemical; conditions: 25° C.; for Droplet volume: calculated; for Droplet weight: mean ± SD
Description: The droplet size of selected SFA's in terms of weight and volume of droplets from three droppers was determined and compared to that of purified water. The devices used for dispensing the droplets were (a) a 2 mL Pasteur pipette (wall thickness 0.53 mm; external tip diameter: 1.50 mm; length: 150 mm) made of glass, (b) a 20 G (0.9 mm×50 mm) injection needle, and (c) a dropper from a commercial eye drops product (Hylo-Vision). The droplet weights were measured at 25° C. using a laboratory balance; the volumes were calculated. Each test was performed 10 times.

rabbit eyes [3] = assay: Ex-vivo eye irritation test (EVEIT), abraded cornea
rabbit eyes [4] = tested on: rabbit eyes
[5] = tested on: Sjögren syndrome patients; conditions: oral, clinical studies; cited from earlier work

Compound: CCCCCC(F)(F)C(F)(F)C(F)(F)C(F)(F)F [Example F4H5]
Refractive index [1]: 1.3204
Droplet volume ([2]; Eye dropper (Hylo-Vision)): 9.6 ± 0.2 µL
Droplet weight ([2]; Eye dropper (Hylo-Vision)): 12.4 ± 0.2 mg
Droplet volume ([2]; Glass pipette): 4.7 ± 0.3 µL
Droplet weight ([2]; Glass pipette, 10 tests): 6.0 ± 0.4 mg
Droplet volume ([2]; Injection needle 20 G): 2.0 ± 0.3 µL
Droplet weight ([2]; Injection needle 20 G): 2.6 ± 0.4 mg
Penetration into the cornea (rabbit eyes [3]; OCT imaging): no indication of penetration of F4H5 into the cornea
Morphological and histological evaluation of cornea (rabbit eyes [3]; end of test): had not only healed very well, but were also entirely clear at the end of the tests, with healthy and smooth surface morphology
Physiological tolerability (rabbit eyes [3]; in words): better tolerated than culture medium

Compound: O [Water, water, reference compound]
Droplet volume ([2]; Eye dropper (Hylo-Vision)): 36.1 ± 2.2 µL
Droplet weight ([2]; Eye dropper (Hylo-Vision)): 36.0 ± 2.2 mg
Droplet volume ([2]; Glass pipette): 31.3 ± 1.4 µL
Droplet weight ([2]; Glass pipette, 10 tests): 31.2 ± 1.4 mg
Droplet volume ([2]; Injection needle 20 G): 11.1 ± 0.9 µL
Droplet weight ([2]; Injection needle 20 G): 11.0 ± 0.9 mg

Compound: CCCCCCCCC(F)(F)C(F)(F)C(F)(F)C(F)(F)F [Example F4H8]
Refractive index [1]: 1.348

Compound: benzalkonium chloride [BAC]
Healing of corneal lesions (rabbit eyes [4]): rapid growth of the lesions eventually leading to a complete disintegration of the corneal epithelium
Morphological and histological evaluation of cornea (rabbit eyes [4]): complete disintegration of the corneal epithelium, but also a major impairment of the complete cornea even including the endothelium

Compound: CC1OC2(CS1)CN1CCC2CC1 (stereo not shown) [Cevimeline]
Effect on DED symptoms [5]: effective in the management of symptoms associated with keratoconjunctivitis sicca of the Sjögren type

Compound: CCCCCCCC(F)(F)C(F)(F)C(F)(F)C(F)(F)F [Example F4H7]
Refractive index [1]: 1.3357

Compound: CC[C@@H]1C(=O)OC[C@@H]1Cc1cncn1C [pilocarpine]
Effect on DED symptoms [5]: significantly improved DED symptoms

Continued, in another order:

Refractive index [1]: 1.308
Compound: CCCCC(F)(F)C(F)(F)C(F)(F)C(F)(F)F [Example F4H4]

Refractive index [1]: 1.3494
Compound: CCCCCCCCCC(F)(F)C(F)(F)C(F)(F)C(F)(F)C(F)(F)C(F)(F)F [Example F6H9]

Refractive index [1]: 1.3432
Droplet volume ([2]; Eye dropper (Hylo-Vision)): 10.3 ± 0.3 µL
Droplet weight ([2]; Eye dropper (Hylo-Vision)): 13.7 ± 0.4 mg
Droplet volume ([2]; Glass pipette): 5.0 ± 0.4 µL
Droplet weight ([2]; Glass pipette, 10 tests): 6.6 ± 0.6 mg
Droplet volume ([2]; Injection needle 20 G): 2.5 ± 0.1 µL
Droplet weight ([2]; Injection needle 20 G): 3.4 ± 0.2 mg
Compound: CCCCCCCCC(F)(F)C(F)(F)C(F)(F)C(F)(F)C(F)(F)C(F)(F)F [Example F6H8]
Healing of corneal lesions (rabbit eyes [4]): all lesions healed fully during the experimental time

Refractive index [1]: 1.306
Compound: CCCCC(F)(F)C(F)(F)C(F)(F)C(F)(F)C(F)(F)C(F)(F)F [Example F6H4]

Refractive index [1]: 1.3366
Compound: CCCCCCCC(F)(F)C(F)(F)C(F)(F)C(F)(F)C(F)(F)C(F)(F)F [Example F6H7]

Refractive index [1]: 1.3224
Compound: CCCCCCC(F)(F)C(F)(F)C(F)(F)C(F)(F)C(F)(F)C(F)(F)F [Example F6H6]

Refractive index [1]: 1.295
Compound: CCC(F)(F)C(F)(F)C(F)(F)C(F)(F)C(F)(F)C(F)(F)F [Example F6H2]

Refractive index [1]: 1.334
Compound: CCCCCCC(F)(F)C(F)(F)C(F)(F)C(F)(F)F [Example F4H6]
